The target in one series is T1, androgen receptor (Homo sapiens, UniProt P10275, T878A).
T1 construct: endogenous in cells; host or cells: LNCaP
T1 sequence (P10275 1-920 T878A): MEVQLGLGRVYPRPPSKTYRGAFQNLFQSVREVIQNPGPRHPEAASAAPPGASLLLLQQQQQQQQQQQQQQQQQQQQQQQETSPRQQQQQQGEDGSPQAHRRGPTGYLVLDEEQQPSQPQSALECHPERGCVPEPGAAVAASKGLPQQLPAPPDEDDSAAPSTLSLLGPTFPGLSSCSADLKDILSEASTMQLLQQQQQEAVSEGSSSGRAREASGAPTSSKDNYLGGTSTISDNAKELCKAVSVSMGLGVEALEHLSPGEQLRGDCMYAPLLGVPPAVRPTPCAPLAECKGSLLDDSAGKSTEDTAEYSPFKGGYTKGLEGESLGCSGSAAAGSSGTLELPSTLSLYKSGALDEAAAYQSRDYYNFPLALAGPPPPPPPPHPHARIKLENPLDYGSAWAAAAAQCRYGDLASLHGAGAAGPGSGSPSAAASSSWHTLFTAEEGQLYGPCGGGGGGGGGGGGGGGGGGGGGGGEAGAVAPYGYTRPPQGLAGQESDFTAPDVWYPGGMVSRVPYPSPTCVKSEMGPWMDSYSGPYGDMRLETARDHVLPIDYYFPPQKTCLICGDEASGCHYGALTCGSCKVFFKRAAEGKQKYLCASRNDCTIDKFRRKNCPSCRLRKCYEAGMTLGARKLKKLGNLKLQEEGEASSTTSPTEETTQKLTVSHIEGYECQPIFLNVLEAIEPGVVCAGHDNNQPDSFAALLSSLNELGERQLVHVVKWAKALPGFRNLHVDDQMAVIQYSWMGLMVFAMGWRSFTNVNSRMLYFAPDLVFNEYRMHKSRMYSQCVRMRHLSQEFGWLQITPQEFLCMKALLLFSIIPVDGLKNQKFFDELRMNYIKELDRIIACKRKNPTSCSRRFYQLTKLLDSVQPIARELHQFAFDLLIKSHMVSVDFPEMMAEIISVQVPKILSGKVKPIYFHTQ
Put plainly: PSA (6.1 kb)-luciferase reporter assay in LNCaP cells induced with R1881. It is filed as cell-based. To be noted: R1881 1 nM, 48 h, mean with standard error. On the procedure:
LNCaP cells (3×10^4) were seeded into 24-well plates overnight. […] Luciferase activities were measured and normalized to protein concentration determined by the Bradford assay. IC50 calculations were done using OriginPro 8.1 Software (Northampton, MA, USA). Transfection experiments to determine IC50 values were performed in at least 4 independent experiments (“trials”) using triplicate wells.

Series [1] is described as follows: Body weight in LNCaP xenograft model. It counts as in vivo, mice. To be noted: daily oral 10 or 30 mg/kg, start vs day 26, vs CMC control. On the procedure: Compound Preparation and Treatment: Compound 1a was dissolved in 100% DMSO (ATCC Lot 61908420) to yield a stock solution of 157 mg/mL. Compound 1a was administered as an oral gavage once per day at dose levels of 10 and 30 mg/kg. Vehicle control animals were administered 1% CMC formulation as an oral gavage once daily. CMC (n=17 tumours); 10 mg/kg (n=15 tumours); 30 mg/kg (n=14 tumours). CMC (n=9 animals); 10 mg/kg (n=9 animals); 30 mg/kg (n=9 animals).
Oral treatment was initiated one week after castration. The start of treatment was designated “Day 1” and animals were treated once daily for a total of 24 doses. Two days after the last dose, the tumours were measured and harvested. Body weight was assessed daily throughout the treatment period. Tumor volume was measured on day −7 (castration day), and again on days 1, 4, 8, 12, 16, 20, 24 and 26.

Another series concerns LNCaP xenografts. In words: LNCaP xenograft model in castrated NOD-SCID mice, tumor volume. It counts as in vivo. On the procedure:
LNCaP Cell Preparation: LNCaP cells were passaged prior to seeding in T175flasks at a concentration of ˜2-3×10^7/mL. The cells were grown for 7 days until 90% confluent. Cell preparations were then prepared in RPMI with 5% FBS/Matrigel (50/50, v/v) yielding a final concentration of 1×10^8/mL.
Tumor Induction and Treatment: Six to eight week old NOD-SCID mice were received from BC Cancer Research Centre's Animal Resource Centre and acclimated for 28 days. Tumors were initiated with […]. Tumors were allowed to grow to an average size of approximately 100 mm^3. Mice were then castrated and the tumors allowed to adapt for a period of one week before first dose was administered. Tumor volume was measured as length×width×height in mm multiplied by 0.5236.
Compound Preparation and Treatment: Compound 1a was dissolved in 100% DMSO (ATCC Lot 61908420) to yield a stock solution of 157 mg/mL. Compound 1a was administered as an oral gavage once per day at dose levels of 10 and 30 mg/kg. Vehicle control animals were administered 1% CMC formulation as an oral gavage once daily. […]
Oral treatment was initiated one week after castration. […] Two days after the last dose, the tumours were measured and harvested. Body weight was assessed daily throughout the treatment period. Tumor volume was measured on day −7 (castration day), and again on days 1, 4, 8, 12, 16, 20, 24 and 26.

A further series deals with PSA mRNA. In words: PSA mRNA in LNCaP xenografts by QPCR. It is filed as in vivo, mice. From the text: Quantitative Real-Time Polymerase Chain Reaction (QPCR) Method: LNCaP xenografts were homogenized using TRIzol® reagent (Invitrogen™), and total RNA was extracted using PureLink RNA Mini Kit (Life Technologies). Amplification Grade DNase I treatment (Sigma-Aldrich) was applied to the RNA before RT-PCR using High Capacity RNA-to-DNA kit (Life Technologies) to generate cDNA. cDNA and gene-specific primers were combined with Platinum® SYBR® Green qPCRSuperMix-UDG with ROX (Invitrogen™). Transcripts were measured by quantitative real-time PCR (QPCR) using ABI PRISM 7900 Sequence Detection System (ABI PRISM®, Applied Biosystems by Life Technologies) in triplicates for each biological sample. Gene expression levels were normalized to housekeeping gene RPL13A. Primers for PSA have been previously described (Andersen R. J., et al. Cancer Cell. 2010; Myung J. K., et al. J. Clin. Invest. 2013).
In FIG. 6, bars represent mean±SEM with n=5 representative tumors from each treatment group. One-way ANOVA post-hoc Tukey's multiple comparisons test was performed for statistical analysis. *p<0.05; **p<0.01; ***p<0.001.

As to `CC(=O)OC[C@H](COc1ccc(C(C)(C)c2ccc(OC[C@@H](CCl)OC(C)=O)cc2)cc1)OC(C)=O` [B, reference compound], at androgen receptor, inhibition was half-maximal at 10700 ± 1040 nM (IC50).
On the same count and under the same terms, the result for `CC(C)(c1ccc(OC[C@H](O)CO)cc1)c1ccc(OC[C@H](O)CCl)c(Cl)c1` [C, reference compound] reads 2470 ± 260 nM.
Consider `CC(C)(c1ccc(OC[C@H](O)CO)cc1)c1cc(Cl)c(OC[C@H](O)CCl)c(Cl)c1` [Compound 1a, (R)-3-(4-(2-(3,5-dichloro-4-((S)-3-chloro-2-hydroxypropoxy)phenyl)propan-2-yl)phenoxy)propane-1,2-diol], for which the “start and finish body weights” value in series [1] is “no significant differences between the start and finish body weights”. For the same compound, the IC50 (in general, the concentration needed to halve the response being measured) at androgen receptor came out at 1410 ± 270 nM. Further, the “tumor growth / tumor volume at the end of the treatment period” value in the series on LNCaP xenografts (daily oral 10 mg/kg or 30 mg/kg, castrated NOD-SCID mice, day 26, vs CMC control) is “inhibition of tumor growth and significant reduction of tumor volume”. Also, the “difference in tumor volumes between the 10 mg/kg and 30 mg/kg doses” value in the series with LNCaP xenografts (daily oral, 10 mg/kg vs 30 mg/kg) was “no statistical difference in the tumor volumes”. Also, the “mRNA expression of PSA in tumors” value in the series with PSA mRNA (30 mg/kg oral daily, compared to the 10 mg/kg dose and control treatment) is given as “significant reduction of PSA expression”; in the series on PSA mRNA (10 and 30 mg/kg oral daily, QPCR normalized to RPL13A, n=5 tumors), “dose-dependent inhibition of the mRNA expression of PSA”.
Regarding `COC[C@@H](O)COc1ccc(C(C)(C)c2cc(Cl)c(OC[C@H](O)CCl)c(Cl)c2)cc1` [Compound 5a, (S)-1-chloro-3-(2,6-dichloro-4-(2-(4-((R)-2-hydroxy-3-methoxypropoxy)phenyl)propan-2-yl)phenoxy)propan-2-ol], on androgen receptor, the IC50 stood at 1030 ± 390 nM.
`CC(C)(c1ccc(OC[C@H](O)Cn2ccnc2)cc1)c1cc(Cl)c(OC[C@H](O)CCl)c(Cl)c1` [Compound 9a, (S)-1-chloro-3-(2,6-dichloro-4-(2-(4-((R)-2-hydroxy-3-(1H-imidazol-1-yl)propoxy)phenyl)propan-2-yl)phenoxy)propan-2-ol]: at androgen receptor, the IC50 was found to be 3120 ± 680 nM.
Same read-out and setting: the result for `CC(C)(c1ccc(OC[C@H](O)CN2CCOCC2)cc1)c1cc(Cl)c(OC[C@H](O)CCl)c(Cl)c1` [Compound 11a, (S)-1-chloro-3-(2,6-dichloro-4-(2-(4-((R)-2-hydroxy-3-morpholinopropoxy)phenyl)propan-2-yl)phenoxy)propan-2-ol] reads 1050 ± 150 nM.
Still for that read-out and setting: the result for `CC(C)(c1ccc(OC[C@H](O)CN)cc1)c1cc(Cl)c(OC[C@H](O)CCl)c(Cl)c1` [Compound 12a, (R)-1-amino-3-(4-(2-(3,5-dichloro-4-((S)-3-chloro-2-hydroxypropoxy)phenyl)propan-2-yl)phenoxy)propan-2-ol] reads 2260 ± 240 nM.
`CC(C)(c1ccc(OC[C@H](O)CNS(C)(=O)=O)cc1)c1cc(Cl)c(OC[C@H](O)CCl)c(Cl)c1` [Compound 13a, N-((R)-3-(4-(2-(3,5-dichloro-4-((S)-3-chloro-2-hydroxypropoxy)phenyl)propan-2-yl)phenoxy)-2-hydroxypropyl)methanesulfonamide] yielded an IC50 at androgen receptor of 1000 ± 160 nM. This IC50 lies about 2.3-fold lower than the previous one.
On the same count and under the same terms, the result for `CCS(=O)(=O)C[C@@H](O)COc1ccc(C(C)(C)c2cc(Cl)c(OC[C@H](O)CCl)c(Cl)c2)cc1` [Compound 14a, (S)-1-chloro-3-(2,6-dichloro-4-(2-(4-((S)-3-(ethylsulfonyl)-2-hydroxypropoxy)phenyl)propan-2-yl)phenoxy)propan-2-ol] reads 950 ± 210 nM.

The values are drawn from US11919874B2, “Bisphenol derivatives and their use as androgen receptor activity modulators” (The University of British Columbia, priority 2016, dated 2024).
